In patent US20240247080A1, “GLP1/GIP/NPY2 RECEPTOR TRIPLE AGONISTS” (Boehringer Ingelheim International GmbH, priority 2022, published 2024) one finds EC50 data, which are given here for six molecules.

Holding throughout (assay type): cell-based
Conditions in all cases: CreLuc reporter gene assay
(A reporter such as luciferase makes a cellular process visible.)

The target in assay [1] is T1, hGLP1R (Homo sapiens, UniProt P43220).
T1 construct: expressed in transfected cells; host or cells: HEK-293 cells carrying a CRE-luciferase reporter gene
T1 sequence (P43220 24-463): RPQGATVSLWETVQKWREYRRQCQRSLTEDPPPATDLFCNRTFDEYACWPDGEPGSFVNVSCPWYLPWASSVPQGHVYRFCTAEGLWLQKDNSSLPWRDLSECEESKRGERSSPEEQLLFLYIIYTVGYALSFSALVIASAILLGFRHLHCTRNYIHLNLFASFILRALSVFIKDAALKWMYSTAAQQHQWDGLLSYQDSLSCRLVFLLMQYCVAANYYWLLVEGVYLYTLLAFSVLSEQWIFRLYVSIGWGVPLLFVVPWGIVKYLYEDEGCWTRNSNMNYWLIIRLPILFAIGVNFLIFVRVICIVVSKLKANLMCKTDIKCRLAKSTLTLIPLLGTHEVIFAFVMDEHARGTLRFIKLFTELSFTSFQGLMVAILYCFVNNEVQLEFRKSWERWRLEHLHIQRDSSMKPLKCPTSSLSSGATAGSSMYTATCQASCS
Nature of the assay: hGLP1R CreLuc reporter gene assay in 0.5% and 100% plasma. In short, it runs like this:
(§1)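 Agonist EC50s came from 8-concentration curves over four decades, fitted by non-linear variable-slope regression of CRE-driven luciferase luminescence. Cells were exposed 4 h at 37 °C, in buffer with 0.5% human plasma or in 100% plasma; GIPR was expressed in CHO cells, GLP-1R and NPY2R in HEK cells.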

Assay [2] has as its target T2, hGIPR (Homo sapiens, UniProt P48546).
T2 construct: expressed in transfected cells; host or cells: CHO cells carrying a CRE-luciferase reporter gene
T2 sequence (P48546 22-466): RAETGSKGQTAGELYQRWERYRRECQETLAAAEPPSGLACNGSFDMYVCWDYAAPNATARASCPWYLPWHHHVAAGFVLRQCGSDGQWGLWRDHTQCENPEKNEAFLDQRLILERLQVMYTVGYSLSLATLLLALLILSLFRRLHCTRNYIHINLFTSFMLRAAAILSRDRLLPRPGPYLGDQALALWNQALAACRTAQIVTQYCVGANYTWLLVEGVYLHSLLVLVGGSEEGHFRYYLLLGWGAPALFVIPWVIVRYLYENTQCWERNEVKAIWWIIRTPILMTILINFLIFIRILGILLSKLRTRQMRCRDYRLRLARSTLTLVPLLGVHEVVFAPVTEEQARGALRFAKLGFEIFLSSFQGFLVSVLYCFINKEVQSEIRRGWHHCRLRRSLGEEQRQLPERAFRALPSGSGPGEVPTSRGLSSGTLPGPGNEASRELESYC
Nature of the assay: hGIPR CreLuc reporter gene assay in 0.5% and 100% plasma. In short, it runs like this:
as §1

Assay [3] has as its target T3, hNPY2R (Homo sapiens, UniProt P49146).
T3 construct: expressed in transfected cells; host or cells: HEK-293 cells carrying a CRE-luciferase reporter gene
T3 sequence (P49146 1-381): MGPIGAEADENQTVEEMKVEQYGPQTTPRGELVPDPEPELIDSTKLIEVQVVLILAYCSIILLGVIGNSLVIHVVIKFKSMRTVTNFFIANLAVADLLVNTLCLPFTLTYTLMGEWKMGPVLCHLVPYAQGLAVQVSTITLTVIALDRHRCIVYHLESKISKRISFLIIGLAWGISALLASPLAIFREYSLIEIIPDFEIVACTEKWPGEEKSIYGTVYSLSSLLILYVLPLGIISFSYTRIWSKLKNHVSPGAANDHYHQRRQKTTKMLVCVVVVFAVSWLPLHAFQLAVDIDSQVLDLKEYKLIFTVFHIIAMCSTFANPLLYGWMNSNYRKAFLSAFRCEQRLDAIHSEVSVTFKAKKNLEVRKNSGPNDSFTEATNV
The assay is described as follows: hNPY2R CreLuc reporter gene assay in 0.5% and 100% plasma. The text has this: Example 1: hGLPR/hGIPR/hNPY2R CreLuc Assay in 0.5% and 100% Plasma
CHO and HEK-293 recombinant cell lines express a luciferase reporter gene under control of the cAMP responsive element (CRE). As a second recombinant protein the GLP-1 and NPY2 receptors were expressed in the reporter gene HEK cells, and the GIP receptor was expressed in the reporter gene CHO cells, respectively. Stimulation of these recombinant cells with an agonist leads to an increase of intracellular cAMP levels. In the presence of cAMP, the transcription factor CRE binding protein (CREB) binds to the CRE and to the CREB binding protein (CBP), which leads to transcription of the luciferase reporter gene. Peptides upon serial-dilution in 100% DMSO were transferred into 384-well assay plates with 5 μl pre-dispensed assay buffer (1×HBSS, 20 mM HEPES, pH7.4 supplemented with 0.5% human plasma) using acoustic dispensing on a Labcyte ECHO. Cryo-preserved transgenic reporter gene cells were thawed in assay buffer. 20 μl (10.000 cells/well) were added to the plate with the peptides and incubated for 4 hours at 37° C. in a humidified incubator. Following incubation, assay plates are equilibrated to room temperature, followed by addition of 25 μl of Bright-GIo™ Luciferase reagent, incubation at room temperature for 10 minutes and analysis of luminescence (Envision Reader). Concentration response evaluation of compounds was performed with 8 concentrations of peptides (covering four decades). EC50 values were calculated by non-linear regression using sigmoid concentration-response with variable slope. The same assays were run in the presence of 100% plasma with no additional buffer constituents.

[4] abbreviates: 0.5% human plasma, read-out: hGLP1R 0.5% hP.
[5] abbreviates: 100% human plasma, read-out: hGLP1R 100% hP.
[6] abbreviates: 0.5% human plasma, read-out: hGIPR 0.5% hP.
Where [7] appears, read: 100% human plasma, read-out: hGIPR 100% hP.
Setting [8] is: 0.5% human plasma, read-out: hNPY2R 0.5% hP.

Where two headings read alike, the source gives them in different places. Starred links: 1 amine or outer side, 2 acyl side, 3 side chain; linkers in the order of their positions; H or OH if unused. Non-standard residues stand in square brackets, D forms with d. Groups on a side chain read outwards from the residue. *: point of attachment. C20 diacid = O=C(O)CCCCCCCCCCCCCCCCCCC(=O)*; C18 diacid = O=C(O)CCCCCCCCCCCCCCCCC(=O)*; γGlu = O=C(O)[C@H](CCC(=O)[*:2])N[*:1]; εLys = N[C@@H](CCCCN[*:1])C(=O)[*:2]; Aib = CC(C)(N)C(=O)O

Regarding “H-Y[Aib]EGTFTSDYSI[Aib]LEKQAQ[Aib]AFVEWLIK([γGlu-γGlu-γGlu-γGlu-γGlu-C18 diacid])GGPSSGASLRHYYNWLTRQRY-NH2 [Compound 253, Y-Aib-E-G-T-F-T-S-D-Y-S-I-Aib-L-E-K-Q-A-Q-Aib-A-F-V-E-W-L-I-K(1,3)-GGPSSGASLRHYYNWLTRQRY-NH2.C18DA-gGlu-gGlu-gGlu-gGlu-gGlu(1,2)]”, the EC50 in assay [1] (setting [4]) is 0.08 nM; in assay [1] (setting [5]) it was 0.74 nM; in assay [2] (setting [6]), 0.24 nM; in assay [2] (setting [7]), 0.64 nM; in assay [3] (setting [8]) it was 13.4 nM.

On to “H-Y[Aib]EGTFTSDYSI[Aib]LEKQAE[Aib]AFVQWLIK([εLys-γGlu-γGlu-γGlu-γGlu-γGlu-C20 diacid])GGPSEGASLRHYYNWLTRQRY-NH2 [Compound 200, Y-Aib-E-G-T-F-T-S-D-Y-S-I-Aib-L-E-K-Q-A-E-Aib-A-F-V-Q-W-L-I-K(1,3)-GGPSEGASLRHYYNWLTRQRY-NH2.C20DA-gGlu-gGlu-gGlu-gGlu-gGlu-eLys(1,2)]”, for which the results for the EC50 in assay [1] (setting [4]), in assay [2] (setting [6]) and in assay [3] (setting [8]) were 0.48 nM, 0.37 nM and 12.1 nM, respectively.

On to “H-Y[Aib]EGTFTSDYSI[Aib]LEKQAQ[Aib]AFVEWLIK([εLys-γGlu-γGlu-γGlu-γGlu-γGlu-γGlu-C20 diacid])GGPSSYESLRHYYNWLTRQRY-NH2 [Compound 50, Y-Aib-E-G-T-F-T-S-D-Y-S-I-Aib-L-E-K-Q-A-Q-Aib-A-F-V-E-W-L-I-K(1,3)-GGPSSYESLRHYYNWLTRQRY-NH2.C20DA-gGlu-gGlu-gGlu-gGlu-gGlu-gGlu-eLys(1,2)]”, for which the EC50 in assay [1] (setting [4]) came out at 0.13 nM; in assay [2] (setting [6]), 0.12 nM; in assay [3] (setting [8]) it was 11.8 nM.

For `CC[C@H](C)[C@H](NC(=O)[C@H](CC(C)C)NC(=O)[C@H](Cc1c[nH]c2ccccc12)NC(=O)[C@H](CCC(N)=O)NC(=O)[C@@H](NC(=O)[C@H](Cc1ccccc1)NC(=O)[C@H](C)NC(=O)C(C)(C)NC(=O)[C@H](CCC(N)=O)NC(=O)[C@H](C)NC(=O)[C@H](CCC(N)=O)NC(=O)[C@H](CCCCN)NC(=O)[C@H](CCC(=O)O)NC(=O)[C@H](CC(C)C)NC(=O)C(C)(C)NC(=O)[C@@H](NC(=O)[C@H](CO)NC(=O)[C@H](Cc1ccc(O)cc1)NC(=O)[C@H](CC(=O)O)NC(=O)[C@H](CO)NC(=O)[C@@H](NC(=O)[C@H](Cc1ccccc1)NC(=O)[C@@H](NC(=O)CNC(=O)[C@H](CCC(=O)O)NC(=O)C(C)(C)NC(=O)[C@@H](N)Cc1ccc(O)cc1)[C@@H](C)O)[C@@H](C)O)[C@@H](C)CC)C(C)C)C(=O)N[C@@H](CCCCNC(=O)[C@@H](N)CCCCNC(=O)[C@H](CCC(=O)O)NC(=O)[C@H](CCC(=O)O)NC(=O)[C@H](CCC(=O)O)NC(=O)[C@H](CCC(=O)O)NC(=O)[C@H](CCC(=O)O)NC(=O)[C@H](CCC(=O)O)NC(=O)CCCCCCCCCCCCCCCCC(=O)O)C(=O)NCC(=O)NCC(=O)N1CCC[C@H]1C(=O)N[C@@H](CO)C(=O)N[C@@H](CCC(=O)O)C(=O)NCC(=O)N[C@@H](C)C(=O)N[C@@H](CO)C(=O)N[C@@H](CC(C)C)C(=O)N[C@@H](CCCNC(=N)N)C(=O)N[C@@H](Cc1c[nH]cn1)C(=O)N[C@@H](Cc1ccc(O)cc1)C(=O)N[C@@H](Cc1ccc(O)cc1)C(=O)N[C@@H](CC(N)=O)C(=O)N[C@@H](Cc1c[nH]c2ccccc12)C(=O)N[C@@H](CC(C)C)C(=O)N[C@H](C(=O)N[C@@H](CCCNC(=N)N)C(=O)N[C@@H](CCC(N)=O)C(=O)N[C@@H](CCCNC(=N)N)C(=O)N[C@@H](Cc1ccc(O)cc1)C(N)=O)[C@@H](C)O` [Compound 249, Y-Aib-E-G-T-F-T-S-D-Y-S-I-Aib-L-E-K-Q-A-Q-Aib-A-F-V-Q-W-L-I-K(1,3)-GGPSEGASLRHYYNWLTRQRY-NH2.C18DA-E-E-E-E-E-E-eLys(1,2)], the EC50 in assay [1] (setting [4]) turned out to be 0.13 nM; in assay [1] (setting [5]), 1.78 nM; in assay [2] (setting [6]), 0.19 nM; in assay [2] (setting [7]), 1.25 nM; in assay [3] (setting [8]) it was 17.8 nM.

“H-Y[Aib]EGTFTSDYSI[Aib]LEEQAQ[Aib]AFVEWLIK([εLys-γGlu-γGlu-γGlu-γGlu-C20 diacid])GGPSSGASLRHYYNWLTRQRY-NH2 [Compound 97, Y-Aib-E-G-T-F-T-S-D-Y-S-I-Aib-L-E-E-Q-A-Q-Aib-A-F-V-E-W-L-I-K(1,3)-GGPSSGASLRHYYNWLTRQRY-NH2.C20DA-gGlu-gGlu-gGlu-gGlu-eLys(1,2)]”: the EC50 in assay [1] (setting [4]) is 0.15 nM; in assay [2] (setting [6]), 0.14 nM; in assay [2] (setting [7]), 0.95 nM; in assay [3] (setting [8]), 14.9 nM; in assay [3] (100% human plasma, read-out: hNPY2R 100% hP), 70.4 nM.

With `CC[C@H](C)[C@H](NC(=O)[C@H](CC(C)C)NC(=O)[C@H](Cc1c[nH]c2ccccc12)NC(=O)[C@H](CCC(=O)O)NC(=O)[C@@H](NC(=O)[C@H](Cc1ccccc1)NC(=O)[C@H](C)NC(=O)C(C)(C)NC(=O)[C@H](CCC(N)=O)NC(=O)[C@H](C)NC(=O)[C@H](CCC(N)=O)NC(=O)[C@H](CCCCN)NC(=O)[C@H](CCC(=O)O)NC(=O)[C@H](CC(C)C)NC(=O)C(C)(C)NC(=O)[C@@H](NC(=O)[C@H](CO)NC(=O)[C@H](Cc1ccc(O)cc1)NC(=O)[C@H](CC(=O)O)NC(=O)[C@H](CO)NC(=O)[C@@H](NC(=O)[C@H](Cc1ccccc1)NC(=O)[C@@H](NC(=O)CNC(=O)[C@H](CCC(=O)O)NC(=O)C(C)(C)NC(=O)[C@@H](N)Cc1ccc(O)cc1)[C@@H](C)O)[C@@H](C)O)[C@@H](C)CC)C(C)C)C(=O)N[C@@H](CCCCNC(=O)[C@@H](N)CCCCNC(=O)CC[C@H](NC(=O)CC[C@H](NC(=O)CC[C@H](NC(=O)CC[C@H](NC(=O)CC[C@H](NC(=O)CC[C@H](NC(=O)CCCCCCCCCCCCCCCCCCC(=O)O)C(=O)O)C(=O)O)C(=O)O)C(=O)O)C(=O)O)C(=O)O)C(=O)NCC(=O)NCC(=O)N1CCC[C@H]1C(=O)N[C@@H](CO)C(=O)N[C@@H](CO)C(=O)NCC(=O)N[C@@H](CCC(=O)O)C(=O)N[C@@H](CO)C(=O)N[C@@H](CC(C)C)C(=O)N[C@@H](CCCNC(=N)N)C(=O)N[C@@H](Cc1c[nH]cn1)C(=O)N[C@@H](Cc1ccc(O)cc1)C(=O)N[C@@H](Cc1ccc(O)cc1)C(=O)N[C@@H](CC(N)=O)C(=O)N[C@@H](Cc1c[nH]c2ccccc12)C(=O)N[C@@H](CC(C)C)C(=O)N[C@H](C(=O)N[C@@H](CCCNC(=N)N)C(=O)N[C@@H](CCC(N)=O)C(=O)N[C@@H](CCCNC(=N)N)C(=O)N[C@@H](Cc1ccc(O)cc1)C(N)=O)[C@@H](C)O` [Compound 127, Y-Aib-E-G-T-F-T-S-D-Y-S-I-Aib-L-E-K-Q-A-Q-Aib-A-F-V-E-W-L-I-K(1,3)-GGPSSGESLRHYYNWLTRQRY-NH2.C20DA-gGlu-gGlu-gGlu-gGlu-gGlu-gGlu-eLys(1,2)], the EC50 in assay [1] (setting [4]) worked out at 0.04 nM; in assay [1] (setting [5]) it was 1.6 nM; in assay [2] (setting [6]), 0.05 nM; in assay [2] (setting [7]), 0.84 nM; in assay [3] (setting [8]), 13.2 nM.
